Assay results published in the NIST ThermoML archive (doi:10.1021/je7003758).

Conditions: Liquid

CN1CCCC1=O [N-methylpyrrolidone]
mass density [kg/m3]
Conditions | 288.15 K | 298.15 K | 308.15 K | 318.15 K
100 kPa | 1036.8 | 1028 | 1019.3 | 1011
500 kPa | 1036.9 | 1028.1 | 1019.5 | 1011.1
1000 kPa | 1037.2 | 1028.4 | 1019.8 | 1011.4
1500 kPa | 1037.4 | 1028.7 | 1020 | 1011.7
2000 kPa | 1037.7 | 1028.9 | 1020.3 | 1012.1
2500 kPa | 1037.9 | 1029.2 | 1020.6 | 1012.4
3000 kPa | 1038.2 | 1029.4 | 1020.9 | 1012.7
3500 kPa | 1038.4 | 1029.7 | 1021.1 | 1012.9
4000 kPa | 1038.7 | 1030 | 1021.4 | 1013.2
4500 kPa | 1038.9 | 1030.2 | 1021.6 | 1013.5
5000 kPa | 1039.2 | 1030.5 | 1021.8 | 1013.8
5500 kPa | 1039.4 | 1030.7 | 1022.2 | 1014
5900 kPa | – | 1031 | – | –
6000 kPa | 1039.6 | – | 1022.4 | 1014.4
6400 kPa | – | – | 1022.6 | –
6500 kPa | 1039.9 | 1031.3 | – | 1014.6
6900 kPa | – | 1031.5 | – | –
7000 kPa | 1040.2 | – | – | 1014.9
7100 kPa | – | – | 1023 | –
7500 kPa | 1040.4 | 1031.8 | 1023.1 | 1015.2
8000 kPa | 1040.7 | 1032 | – | 1015.5
8100 kPa | – | – | 1023.5 | –
8500 kPa | 1041 | 1032.3 | 1023.7 | 1015.8
9000 kPa | 1041.2 | 1032.5 | 1024 | 1016
9500 kPa | 1041.4 | – | 1024.3 | 1016.3
9600 kPa | – | 1032.9 | – | –
10000 kPa | 1041.7 | 1033.1 | 1024.6 | 1016.6
10400 kPa | – | – | 1024.8 | –
10500 kPa | 1042 | 1033.3 | – | 1016.9
11000 kPa | 1042.2 | 1033.6 | – | 1017.3
11100 kPa | – | – | 1025.1 | –
11400 kPa | – | – | – | 1017.6
11500 kPa | 1042.5 | 1033.8 | 1025.3 | –
12000 kPa | – | 1034.1 | 1025.5 | 1017.8
12100 kPa | 1042.7 | – | – | –
12500 kPa | 1042.9 | 1034.3 | 1025.8 | 1018
12900 kPa | – | – | – | 1018.3
13000 kPa | 1043.1 | 1034.6 | 1026 | –
13500 kPa | 1043.4 | 1034.8 | 1026.3 | 1018.5
14000 kPa | 1043.6 | 1035.1 | 1026.5 | 1018.8
14400 kPa | – | 1035.3 | – | –
14500 kPa | 1043.8 | – | 1026.8 | 1019.1
14900 kPa | – | 1035.5 | – | –
15000 kPa | 1044.1 | – | 1027 | 1019.4
15500 kPa | 1044.3 | 1035.8 | 1027.3 | 1019.7
16000 kPa | 1044.5 | 1036 | 1027.5 | 1019.9
16500 kPa | 1044.8 | 1036.3 | 1027.7 | 1020.2
17000 kPa | 1045 | 1036.5 | 1028 | 1020.4
17500 kPa | 1045.2 | 1036.7 | 1028.3 | 1020.7
17900 kPa | – | 1037 | – | –
18000 kPa | 1045.4 | – | 1028.5 | 1021
18500 kPa | – | 1037.2 | 1028.7 | 1021.3
18600 kPa | 1045.7 | – | – | –
19000 kPa | 1046 | 1037.4 | 1029 | 1021.5
19500 kPa | 1046.2 | 1037.7 | 1029.2 | –
19600 kPa | – | – | – | 1021.9
20000 kPa | 1046.4 | 1037.9 | 1029.4 | 1022
